Tested on: primary acute myeloid leukemia (AML) cells
Assay: Response to chemotherapy following treatment with doxorubicin, DWJM culture vs suspension culture
Type: cell-based, human
Protocol: AML patient samples collected by leukapheresis were cultured in DWJM disks for one week. Non-adherent cells were first aspirated and adherent cells were separately isolated and assessed for viability, apoptosis, and colony forming unit (CFU). RNA sequencing was performed at the end of culture. Response to chemotherapy following treatment with doxorubicin was also assessed. For all studies, DWJM-adherent and non-adherent cells were compared to suspension culture controls. Metabolic pathway analyses were conducted using enzyme-linked immunosorbent assay (ELISA). One-tailed t-test was used for comparison between the groups

COc1cccc2c1C(=O)c1c(O)c3c(c(O)c1C2=O)C[C@@](O)(C(=O)CO)C[C@@H]3O[C@H]1C[C@H](N)[C@H](O)[C@H](C)O1 [doxorubicin]
CFU activity after doxorubicin (co-culture with DWJM, P=0.047): 3.3 /300,000 cells | CFU activity after doxorubicin (suspension culture cells): 0.3 /300,000 cells
